Results published in PubChem BioAssay (NCI).
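Five concentrations, 48 hours, 96-well plates. Here, GI50 denotes the concentration required for 50% inhibition of growth. TGI denotes the concentration required for complete inhibition of growth.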

Legend:
Assay in all cases: growth of human tumour cells (NCI), 48 h
OVCAR-4 ovarian = tested on: OVCAR-4 ovarian
RPMI-8226 leukemia = tested on: RPMI-8226 leukemia
HS 578T breast = tested on: HS 578T breast
T-47D breast = tested on: T-47D breast
OVCAR-8 ovarian = tested on: OVCAR-8 ovarian
KM12 colon = tested on: KM12 colon
SR leukemia = tested on: SR leukemia
SNB-19 CNS = tested on: SNB-19 CNS
NCI-H226 lung = tested on: NCI-H226 lung
SK-MEL-5 melanoma = tested on: SK-MEL-5 melanoma
EKVX NSCLC = tested on: EKVX NSCLC
SF-295 CNS = tested on: SF-295 CNS
MCF7 breast = tested on: MCF7 breast
SNB-75 CNS = tested on: SNB-75 CNS
OVCAR-3 ovarian = tested on: OVCAR-3 ovarian
A549 NSCLC = tested on: A549 NSCLC
NCI-H23 lung = tested on: NCI-H23 lung
U251 CNS = tested on: U251 CNS
K-562 leukemia = tested on: K-562 leukemia
COLO 205 colon = tested on: COLO 205 colon
NCI/ADR-RES ovarian = tested on: NCI/ADR-RES ovarian
LOX IMVI melanoma = tested on: LOX IMVI melanoma
CCRF-CEM leukemia = tested on: CCRF-CEM leukemia
MOLT-4 leukemia = tested on: MOLT-4 leukemia
HCT-116 colon = tested on: HCT-116 colon
HT29 colon = tested on: HT29 colon
UO-31 renal = tested on: UO-31 renal
HL-60(TB) leukemia = tested on: HL-60(TB) leukemia
MDA-MB-231 breast = tested on: MDA-MB-231 breast
TK-10 renal = tested on: TK-10 renal
HOP-62 NSCLC = tested on: HOP-62 NSCLC
SW-620 colon = tested on: SW-620 colon
BT-549 breast = tested on: BT-549 breast
NCI-H460 lung = tested on: NCI-H460 lung
UACC-62 melanoma = tested on: UACC-62 melanoma
DU-145 prostate = tested on: DU-145 prostate
CAKI-1 renal = tested on: CAKI-1 renal
SK-MEL-28 melanoma = tested on: SK-MEL-28 melanoma
M14 melanoma = tested on: M14 melanoma
OVCAR-5 ovarian = tested on: OVCAR-5 ovarian
HOP-92 NSCLC = tested on: HOP-92 NSCLC
SF-268 CNS = tested on: SF-268 CNS
RXF 393 renal = tested on: RXF 393 renal
UACC-257 melanoma = tested on: UACC-257 melanoma
MALME-3M melanoma = tested on: MALME-3M melanoma
PC-3 prostate = tested on: PC-3 prostate
SN12C renal = tested on: SN12C renal
SK-OV-3 ovarian = tested on: SK-OV-3 ovarian
SK-MEL-2 melanoma = tested on: SK-MEL-2 melanoma
A498 renal = tested on: A498 renal
IGROV1 ovarian = tested on: IGROV1 ovarian
ACHN renal = tested on: ACHN renal
NCI-H522 lung = tested on: NCI-H522 lung
HCT-15 colon = tested on: HCT-15 colon
HCC-2998 colon = tested on: HCC-2998 colon
786-0 renal = tested on: 786-0 renal

## Nc1nc(Cl)cc(OCC2(O)CC(COC(=O)c3ccccc3)C2)n1 (stereo not drawn)
OVCAR-4 ovarian
  GI50: 38.2 µM
RPMI-8226 leukemia
  GI50: 85.5 µM
HS 578T breast
  GI50: 46.6 µM
T-47D breast
  GI50: 30.7 µM
OVCAR-8 ovarian
  GI50: 71 µM
KM12 colon
  GI50: 30.6 µM
SR leukemia
  GI50: 32.1 µM
SNB-19 CNS
  GI50: 34.1 µM
NCI-H226 lung
  GI50: 81 µM
SK-MEL-5 melanoma
  GI50: 37.3 µM
EKVX NSCLC
  GI50: 13.2 µM
SF-295 CNS
  GI50: 78.5 µM
MCF7 breast
  GI50: 47.7 µM
SNB-75 CNS
  GI50: 53 µM
OVCAR-3 ovarian
  GI50: 82.2 µM
A549 NSCLC
  GI50: 67.8 µM
NCI-H23 lung
  GI50: 51.8 µM
U251 CNS
  GI50: 76.1 µM
K-562 leukemia
  GI50: 40.3 µM
COLO 205 colon
  GI50: 46.6 µM
NCI/ADR-RES ovarian
  GI50: 39.5 µM
LOX IMVI melanoma
  GI50: 76.1 µM
CCRF-CEM leukemia
  GI50: 47.9 µM
MOLT-4 leukemia
  GI50: 26.9 µM
  TGI: 83.7 µM
HCT-116 colon
  GI50: 82.9 µM
HT29 colon
  GI50: 70 µM
UO-31 renal
  GI50: 91.5 µM
HL-60(TB) leukemia
  GI50: 58.4 µM
MDA-MB-231 breast
  GI50: 48.1 µM

## Cc1ccc(/C=C2\CN(C(=O)OC(C)(C)C)C/C(=C\c3ccc(C)cc3)C2=O)cc1
OVCAR-4 ovarian
  GI50: 3.04 µM
  TGI: > 100 µM
TK-10 renal
  GI50: > 40.7 µM
  TGI: > 100 µM
RPMI-8226 leukemia
  GI50: 0.329 µM
HOP-62 NSCLC
  TGI: > 100 µM
SW-620 colon
  GI50: 437 nM
  TGI: > 100 µM
BT-549 breast
  GI50: 221 nM
  TGI: 28.7 µM
NCI-H460 lung
  GI50: 124 nM
  TGI: 10.7 µM
UACC-62 melanoma
  GI50: 78.8 nM
  TGI: > 100 µM
DU-145 prostate
  GI50: 158 nM
  TGI: > 100 µM
CAKI-1 renal
  GI50: 576 nM
  TGI: > 100 µM
SK-MEL-28 melanoma
  GI50: 11.6 µM
  TGI: > 100 µM
HS 578T breast
  GI50: 0.0562 µM
  TGI: 3.45 µM
M14 melanoma
  GI50: 60.8 nM
  TGI: > 100 µM
T-47D breast
  TGI: > 100 µM
OVCAR-8 ovarian
  GI50: 0.918 µM
  TGI: > 100 µM
KM12 colon
  GI50: 0.149 µM
  TGI: > 100 µM
OVCAR-5 ovarian
  GI50: 391 nM
  TGI: > 100 µM
SR leukemia
  GI50: 0.0346 µM
  TGI: > 100 µM
HOP-92 NSCLC
  GI50: 8.97 µM
  TGI: > 100 µM
SNB-19 CNS
  GI50: 0.226 µM
  TGI: > 100 µM
SF-268 CNS
  GI50: 340 nM
  TGI: > 100 µM
NCI-H226 lung
  TGI: > 100 µM
EKVX NSCLC
  TGI: > 100 µM
RXF 393 renal
  GI50: 62.5 nM
  TGI: 4.36 µM
UACC-257 melanoma
  TGI: > 100 µM
MALME-3M melanoma
  TGI: > 100 µM
SF-295 CNS
  GI50: 0.0685 µM
  TGI: > 100 µM
MCF7 breast
  GI50: 0.205 µM
  TGI: > 100 µM
SNB-75 CNS
  GI50: 0.693 µM
  TGI: > 100 µM
PC-3 prostate
  GI50: 452 nM
  TGI: > 100 µM
OVCAR-3 ovarian
  GI50: 0.352 µM
A549 NSCLC
  TGI: > 100 µM
NCI-H23 lung
  GI50: 0.516 µM
  TGI: > 100 µM
U251 CNS
  GI50: 0.489 µM
  TGI: > 100 µM
K-562 leukemia
  GI50: 0.332 µM
  TGI: > 100 µM
SN12C renal
  GI50: 393 nM
  TGI: > 100 µM
SK-OV-3 ovarian
  TGI: 97.5 µM
SK-MEL-2 melanoma
  TGI: > 100 µM
A498 renal
  TGI: > 100 µM
COLO 205 colon
  GI50: 0.597 µM
  TGI: 4.08 µM
NCI/ADR-RES ovarian
  GI50: 0.281 µM
  TGI: > 100 µM
LOX IMVI melanoma
  GI50: 0.0743 µM
  TGI: > 100 µM
IGROV1 ovarian
  GI50: 367 nM
  TGI: > 100 µM
ACHN renal
  GI50: 1060 nM
  TGI: > 100 µM
NCI-H522 lung
  GI50: 159 nM
  TGI: > 100 µM
CCRF-CEM leukemia
  GI50: 0.587 µM
  TGI: > 100 µM
MOLT-4 leukemia
  GI50: 0.805 µM
  TGI: > 41.9 µM
HCT-116 colon
  GI50: 0.058 µM
  TGI: 13.7 µM
HCT-15 colon
  GI50: 54 nM
  TGI: > 100 µM
HT29 colon
  GI50: 0.46 µM
  TGI: > 40.7 µM
HCC-2998 colon
  GI50: 268 nM
  TGI: 927 nM
UO-31 renal
  GI50: 1.16 µM
  TGI: > 100 µM
786-0 renal
  GI50: 445 nM
  TGI: > 100 µM
HL-60(TB) leukemia
  GI50: 0.0409 µM
  TGI: 473 nM
MDA-MB-231 breast
  GI50: 1.22 µM
  TGI: > 54.3 µM
